The values that follow come from US20070134753A1, “Assay for determining the activity of fatty acid amide hydrolase” (priority 2002, published 2007).

Where “and” joins values, the source holds several entries; their conditions need not be identical. Equal entries are not always repeated. Where two headings read alike, the source gives them in different places.

Data set [1] has as its target T1, human FAAH (Homo sapiens, UniProt O00519).
T1 construct: T84 frozen pellets were homogenized in FAAH assay buffer; endogenous in cells; host or cells: T84 human colorectal carcinoma cells (ATCC CCL-248), homogenate/membranes
T1 sequence (O00519 1-579): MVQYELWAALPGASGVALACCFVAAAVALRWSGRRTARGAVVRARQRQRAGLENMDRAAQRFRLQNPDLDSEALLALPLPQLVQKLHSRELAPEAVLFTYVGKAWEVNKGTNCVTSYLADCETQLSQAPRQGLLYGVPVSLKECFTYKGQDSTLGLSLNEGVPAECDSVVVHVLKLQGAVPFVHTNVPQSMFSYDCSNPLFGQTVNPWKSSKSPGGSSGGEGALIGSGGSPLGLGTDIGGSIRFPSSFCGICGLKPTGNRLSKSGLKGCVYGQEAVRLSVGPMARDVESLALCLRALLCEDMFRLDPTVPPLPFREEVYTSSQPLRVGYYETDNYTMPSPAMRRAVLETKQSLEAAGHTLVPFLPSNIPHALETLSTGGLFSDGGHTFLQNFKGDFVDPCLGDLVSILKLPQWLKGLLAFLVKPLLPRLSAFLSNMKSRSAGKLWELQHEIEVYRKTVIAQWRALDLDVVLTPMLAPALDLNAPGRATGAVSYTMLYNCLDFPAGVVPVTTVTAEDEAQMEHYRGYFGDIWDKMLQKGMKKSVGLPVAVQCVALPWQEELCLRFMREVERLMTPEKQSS
As to the kind of experiment: FAAH charcoal filter-plate assay with 3H-anandamide in T84 membranes. It is filed as biochemical. To be noted: for IC50 values (in words): product inhibition.

The target of data set [2] is T2, FAAH (Rattus norvegicus, UniProt P97612).
T2 sequence (P97612 1-579): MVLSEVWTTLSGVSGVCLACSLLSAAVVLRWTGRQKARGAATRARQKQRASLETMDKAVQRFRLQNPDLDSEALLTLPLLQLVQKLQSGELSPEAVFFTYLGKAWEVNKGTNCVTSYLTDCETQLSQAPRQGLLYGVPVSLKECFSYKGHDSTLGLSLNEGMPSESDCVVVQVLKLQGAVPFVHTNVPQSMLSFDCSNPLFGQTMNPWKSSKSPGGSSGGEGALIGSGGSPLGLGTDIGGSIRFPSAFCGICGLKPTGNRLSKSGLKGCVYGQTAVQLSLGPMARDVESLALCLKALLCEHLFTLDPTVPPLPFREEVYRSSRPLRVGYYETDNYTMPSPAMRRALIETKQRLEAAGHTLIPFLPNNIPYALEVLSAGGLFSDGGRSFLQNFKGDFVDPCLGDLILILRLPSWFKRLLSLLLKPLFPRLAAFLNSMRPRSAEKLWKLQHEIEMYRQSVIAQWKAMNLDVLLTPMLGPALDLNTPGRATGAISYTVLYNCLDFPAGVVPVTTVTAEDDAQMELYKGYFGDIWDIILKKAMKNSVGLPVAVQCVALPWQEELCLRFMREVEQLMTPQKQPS
Details: other: literature data. To be noted: read-out: Literature (ref) IC50; cited from earlier work.

For data set [3], the target named is T3, FAAH (Mus musculus, UniProt O08914).
T3 construct: it abolished anandamide hydrolysis in N18 mouse neuroblastoma cells; host or cells: N18 mouse neuroblastoma cells
T3 sequence (O08914 1-579): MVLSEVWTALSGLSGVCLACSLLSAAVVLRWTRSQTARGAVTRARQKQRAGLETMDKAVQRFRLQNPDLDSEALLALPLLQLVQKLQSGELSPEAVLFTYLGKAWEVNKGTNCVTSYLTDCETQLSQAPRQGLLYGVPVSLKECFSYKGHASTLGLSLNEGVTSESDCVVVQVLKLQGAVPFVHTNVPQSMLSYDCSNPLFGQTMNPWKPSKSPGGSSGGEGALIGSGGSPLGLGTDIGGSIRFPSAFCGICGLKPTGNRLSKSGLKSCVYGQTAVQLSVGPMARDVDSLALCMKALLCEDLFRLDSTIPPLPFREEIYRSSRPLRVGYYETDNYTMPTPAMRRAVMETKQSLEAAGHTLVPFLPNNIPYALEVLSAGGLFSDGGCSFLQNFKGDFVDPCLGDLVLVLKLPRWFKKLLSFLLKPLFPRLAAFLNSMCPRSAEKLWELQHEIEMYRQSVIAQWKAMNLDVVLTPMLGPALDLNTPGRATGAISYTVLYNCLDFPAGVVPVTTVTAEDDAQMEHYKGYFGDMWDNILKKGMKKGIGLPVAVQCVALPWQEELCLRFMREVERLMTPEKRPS
To be noted: cited from earlier work.

Data set [4] deals with T2, FAAH. To be noted: cited from earlier work.
For data set [5], the target named is FAAH (Homo sapiens, UniProt O00519). To be noted: human brain; Maccarrone et al. 1999; cited from earlier work.
[6] abbreviates: T84 membranes, room temperature 60 min, average ± S.E. of 2-5 experiments, each in triplicate, read-out: IC50.

Regarding `CCCCCCCC/C=C\CCCCCCCC(=O)O` [Oleic acid], the “IC50 values (in words)” value in data set [1] (T84 membranes) is recorded as “low micromolar range”. For the same compound, the IC50 – broadly, the concentration needed to halve the response being measured – in data set [1] (setting [6]) came to 1.94 ± 0.401 µM.

For `CCCCCCCC/C=C\CCCCCCCCC(=O)C(F)(F)F` [Oleyl trifluoromethyl ketone, oleyl trifluoromethyl ketone], in data set [2], the IC50 was 0.039 µM and 0.024 to 0.041 µM.

As to `CCCCC/C=C\C/C=C\C/C=C\C/C=C\CCCC(=O)O` [Arachidonic acid], the “IC50 values (in words)” value in data set [1] (T84 membranes) is “low micromolar range”. The IC50 in data set [1] (setting [6]) was 0.931 ± 0.255 µM.

For `O=S(=O)(F)Cc1ccccc1` [Phenylmethylsulfonyl fluoride], the IC50 in data set [1] (IC50) was 16 µM; in data set [2], 1.2 to 69 µM. The “anandamide hydrolysis in N18 mouse neuroblastoma cells” value in data set [3] (at a concentration of 100 μM, Maurelli et al. 1995) was “abolished”. In data set [4] (at 25 μM, Desarnaud et al. 1995), the “inhibition of the hydrolysis of rat brain microsomal anandamide” value is listed as 48%.

Consider `CCCCC/C=C\C/C=C\C/C=C\C/C=C\CCCC(=O)NCCO` [anandamide, N-arachidonoylethanolamine], for which the Km (commonly the concentration of substrate that gives half-maximal velocity) in data set [1] (read-out: Km of hydrolysis by FAAH) was 1.1 ± 0.17 µM; in data set [3], 9 µM; in data set [4], 12.7 µM; in data set [5], 2 µM. In addition, the “activity of FAAH” value in data set [3] was “abolished”.
